Data published in patent publication US10597390B2, “Indoles for use in influenza virus infection” (Janssen Sciences Ireland UC, priority 2014, dated 2020).
Structures can show the parent of a compound that is named as a salt.

Tests used:
[1] = system: influenza virus A/Taiwan/1/86 (H1N1); assay: organism not typed; assay type: cell-based; settings: CPE in MDCK cells, three days post-virus exposure, ATPlite
[2] = in vitro; settings: dog, TOX MDCK CC50

SMILES	melting point	IC50 ([1]; MDCK, 72 h)	CC50 at 3 days [2]	IC50 [1]
Nc1n[nH]c(C(=O)N[C@@H]2CCC[C@H](Nc3nc(-c4c[nH]c5c(F)cc(F)cc45)ncc3F)C2)n1	> 300 °C	–	–	–
O=C(N[C@@H]1CCC[C@H](Nc2nc(-c3c[nH]c4c(F)cc(F)cc34)ncc2F)C1)c1nnn[nH]1	270.2 °C	–	–	–
Cc1cc(F)c2[nH]cc(-c3ncc(F)c(N[C@H]4C5CCC(CC5)[C@@H]4C(=O)O)n3)c2c1 (mixture of isomers) (as salt: TFA) [Compound 164]	> 250 °C	–	–	–
Cc1cc(F)c2[nH]cc(-c3ncc(F)c(N[C@@H]4CCC[C@@H](NC(=O)N5CCCC5)C4)n3)c2c1 (racemic) [Compound 20]	94 °C	12 nM	15100 nM	–
Cc1cc(F)c2[nH]cc(-c3ncc(F)c(N[C@@H]4CCC[C@H](NC(=O)c5ccccn5)C4)n3)c2c1 (racemic) [Compound 21]	208 °C	4 nM	4800 nM	–
Cn1nc(CO)cc1C(=O)N[C@@H]1CCC[C@H](Nc2nc(-c3c[nH]c4c(F)cc(F)cc34)ncc2F)C1 (relative stereo) [Compound 262, N-((1R*,3S*)-3-((2-(5,7-difluoro-1H-indol-3-yl)-5-fluoropyrimidin-4-yl)-amino)cyclohexyl)-3-(hydroxymethyl)-1-methyl-1H-pyrazole-5-carboxamide]	–	46 nM	> 25000 nM	–
O=C(N[C@H]1CCC[C@@H](Nc2nc(-c3c[nH]c4c(F)cc(F)cc34)ncc2F)C1)N1CCCC1 (single isomer, unassigned) [Compound 9, N-((1R*,3S*)-3-((2-(5,7-difluoro-1H-indol-3-yl)-5-fluoropyrimidin-4-yl)-amino)cyclohexyl)pyrrolidine-1-carboxamide]	–	3 nM	> 25000 nM	–
CC(C)(C)[C@H](CC(=O)O)Nc1nc(-c2c[nH]c3c(F)cc(F)cc23)c(C(F)(F)F)cc1F (single isomer, unassigned) [Compound 17, (S*)-3-((6-(5,7-difluoro-1H-indol-3-yl)-3-fluoro-5-(trifluoromethyl)pyridin-2-yl)amino)-4,4-dimethylpentanoic acid]	–	37 nM	6200 nM	–
CC(C)(C)[C@@H](CC(=O)O)Nc1nc(-c2c[nH]c3c(F)cc(F)cc23)c(C(F)(F)F)cc1F (single isomer, unassigned) [Compound 18, (R*)-3-((6-(5,7-difluoro-1H-indol-3-yl)-3-fluoro-5-(trifluoromethyl)pyridin-2-yl)amino)-4,4-dimethylpentanoic acid]	–	> 25000 nM	210 nM	–
CC(C)(C)C(Cc1nnn[nH]1)Nc1nc(-c2c[nH]c3c(F)cc(F)cc23)ncc1F (centres unmarked) [Compound 19, 2-(5,7-difluoro-1H-indol-3-yl)-N-(3,3-dimethyl-1-(1H-tetrazol-5-yl)butan-2-yl)-5-fluoropyrimidin-4-amine]	–	160 nM	3700 nM	–
Cc1cc(F)c2[nH]cc(-c3nc(NC(CC(=O)O)C(C)(C)c4ccn(C)n4)c(F)cc3C#N)c2c1 (centres unmarked) [Compound 25, 3-((5-cyano-3-fluoro-6-(7-fluoro-5-methyl-1H-indol-3-yl)pyridin-2-yl)amino)-4-methyl-4-(1-methyl-1H-pyrazol-3-yl)pentanoic acid]	–	41 nM	900 nM	–
Cn1cnc(C(=O)N[C@@H]2CCC[C@H](Nc3nc(-c4c[nH]c5c(F)cc(Cl)cc45)ncc3F)C2)c1 [Compound 26]	–	3 nM	7900 nM	–
O=C(O)[C@H]1C2CCC(CC2)[C@@H]1Nc1nc(-c2c[nH]c3c(F)cc(Cl)cc23)ncc1F [Compound 30]	–	3 nM	200 nM	–
CC(C)(C)C(CC(=O)O)Nc1nc(-c2c[nH]c3c(F)cc(Cl)cc23)ncc1F (centres unmarked) [Compound 39]	–	11 nM	860 nM	–
CC(C)(C)[C@H](CC(=O)O)Nc1nc(-c2c[nH]c3c(F)cc(Cl)cc23)ncc1F [Compound 40]	–	5 nM	400 nM	–
Cc1[nH]nnc1C(=O)N[C@@H]1CCC[C@H](Nc2nc(-c3c[nH]c4c(F)cc(Cl)cc34)ncc2F)C1 [Compound 78]	–	2 nM	5700 nM	–
CN1CCC[C@H]1C(=O)N[C@H]1CCC[C@@H](Nc2nc(-c3c[nH]c4c(F)cc(F)cc34)ncc2F)C1 [Compound 82]	–	270 nM	12900 nM	–
Cn1nc(N)cc1C(=O)N[C@@H]1CCC[C@H](Nc2nc(-c3c[nH]c4c(F)cc(F)cc34)ncc2F)C1 [Compound 85]	–	2 nM	> 25000 nM	–
Cc1[nH]nc(C(=O)N[C@@H]2CCC[C@H](Nc3nc(-c4c[nH]c5c(F)cc(F)cc45)ncc3F)C2)c1N [Compound 86]	–	2 nM	3100 nM	–
COCc1cc(C(=O)N[C@@H]2CCC[C@H](Nc3nc(-c4c[nH]c5c(F)cc(F)cc45)ncc3F)C2)no1 [Compound 87]	–	40 nM	2400 nM	–
O=C(N[C@@H]1CCC[C@H](Nc2nc(-c3c[nH]c4c(F)cc(F)cc34)ncc2F)C1)c1cn(CCO)cn1 [Compound 88]	–	7 nM	11500 nM	–
C=Cn1cnc(C(=O)N[C@@H]2CCC[C@H](Nc3nc(-c4c[nH]c5c(F)cc(F)cc45)ncc3F)C2)c1 [Compound 89]	–	4 nM	7300 nM	–
CCn1ccnc1C(=O)N[C@@H]1CCC[C@H](Nc2nc(-c3c[nH]c4c(F)cc(F)cc34)ncc2F)C1 [Compound 125]	–	4 nM	10200 nM	–

SMILES	melting point	IC50 ([1]; MDCK, 72 h)	CC50 at 3 days [2]	IC50 [1]
O=C(O)c1cccc(C(=O)N[C@@H]2CCC[C@H](Nc3nc(-c4c[nH]c5c(F)cc(F)cc45)ncc3F)C2)n1 [Compound 157]	–	330 nM	> 25000 nM	–
O=C(N[C@@H]1CCC[C@H](Nc2nc(-c3c[nH]c4c(F)cc(F)cc34)ncc2F)C1)c1cc(=O)[nH][nH]1 [Compound 158]	–	15 nM	13000 nM	–
Cn1[nH]c(=O)cc1C(=O)N[C@@H]1CCC[C@H](Nc2nc(-c3c[nH]c4c(F)cc(F)cc34)ncc2F)C1 [Compound 160]	–	0.6 nM	> 25000 nM	–
N#Cc1cc(F)c(N[C@@H]2CCC[C@H](NC(=O)N3CCCC3)C2)nc1-c1c[nH]c2c(F)cc(F)cc12 [Compound 162]	–	–	> 23000 nM	0.5 nM
Cc1cc(F)c2[nH]cc(-c3ncc(F)c(N[C@@H]4C5CCC(CC5)[C@H]4C(=O)O)n3)c2c1 [Compound 165]	–	> 25000 nM	2300 nM	–
Cn1cnc(C(=O)N[C@H]2CCC[C@H](Nc3nc(-c4c[nH]c5c(F)cc(F)cc45)c(C#N)cc3F)C2)c1 [Compound 183]	–	1100 nM	> 25000 nM	–
Cn1cnc(C(=O)N[C@@H]2CCC[C@H](Nc3nc(-c4c[nH]c5c(F)cc(F)cc45)c(C#N)cc3F)C2)c1 [Compound 184]	–	3 nM	> 25000 nM	–
Cn1cnc(C(=O)N[C@@H]2CCC[C@H](Nc3nc(-c4c[nH]c5c(F)cc(Cl)cc45)c(C#N)cc3F)C2)c1 [Compound 185]	–	4 nM	10200 nM	–
CC(C)(C)[C@H](CC(=O)O)Nc1nc(-c2c[nH]c3c(F)cc(F)cc23)ncc1F [Compound 186]	–	10 nM	3800 nM	–
O=C(N[C@@H]1CCC[C@H](Nc2nc(-c3c[nH]c4c(F)cc(Cl)cc34)ncc2F)C1)c1ccccn1 [Compound 188]	–	–	11000 nM	5 nM
Cn1cnc(C(=O)NC2CC(Nc3nc(-c4c[nH]c5c(F)cc(F)cc45)ncc3F)CC(C)(C)C2)c1 (centres unmarked) [Compound 202, N-(5-((2-(5,7-difluoro-1H-indol-3-yl)-5-fluoropyrimidin-4-yl)amino)-3,3-dimethylcyclohexyl)-1-methyl-1H-imidazole-4-carboxamide]	–	790 nM	3900 nM	–
O=C(N[C@@H]1CCC[C@H](Nc2nc(-c3c[nH]c4c(F)cc(F)cc34)ncc2F)C1)c1ccc(O)nn1 [Compound 203]	–	2 nM	> 25000 nM	–
Cc1cc(C(=O)N[C@@H]2CCC[C@@H](Nc3nc(-c4c[nH]c5c(F)cc(F)cc45)c(C#N)cc3F)C2)no1 [Compound 204]	–	10 nM	6800 nM	–
N#Cc1cc(F)c(N[C@H]2CCC[C@@H](NC(=O)[C@@H](O)c3ccccc3)C2)nc1-c1c[nH]c2c(F)cc(F)cc12 [Compound 213]	–	390 nM	3400 nM	–
CC(C)(C)C(CC(=O)O)Nc1nc(-c2c[nH]c3c(F)cc(F)cc23)c(C#N)cc1F (centres unmarked) [Compound 219]	–	5 nM	210 nM	–
CC(C)(c1cccs1)C(CC(=O)O)Nc1nc(-c2c[nH]c3c(F)cc(F)cc23)ncc1F (centres unmarked) [Compound 230]	–	41 nM	4000 nM	–
CC1(C(CC(=O)O)Nc2nc(-c3c[nH]c4c(F)cc(F)cc34)ncc2F)CCCC1 (centres unmarked) [Compound 249]	–	11 nM	1200 nM	–
CC[C@@]1(C(=O)O)CCCC[C@H]1Nc1nc(-c2c[nH]c3c(F)cc(F)cc23)ncc1F [Compound 253]	–	120 nM	15200 nM	–
O=C(O)[C@@H]1CCCC[C@@H]1Nc1nc(-c2c[nH]c3c(F)cc(F)cc23)ncc1F [Compound 254]	–	320 nM	14700 nM	–
CCOC(=O)NCc1cc(F)c(NC(CC(=O)O)C(C)(C)C)nc1-c1c[nH]c2c(F)cc(F)cc12 (centres unmarked) [Compound 256]	–	290 nM	13100 nM	–
CC(C)(C)[C@@H](CO)Nc1nc(-c2c[nH]c3c(F)cc(F)cc23)c(C#N)cc1F [Compound 257, (S)-2-(5,7-difluoro-1H-indol-3-yl)-5-fluoro-6-((1-hydroxy-3,3-dimethyl-butan-2-yl)amino)nicotinonitrile]	–	130 nM	7000 nM	–
O=C(NC1COCC(Nc2nc(-c3c[nH]c4c(F)cc(F)cc34)ncc2F)C1)c1cnn[nH]1 (centres unmarked) [Compound 261, N-(5-((2-(5,7-difluoro-1H-indol-3-yl)-5-fluoropyrimidin-4-yl)amino)-tetrahydro-2H-pyran-3-yl)-1H-1,2,3-triazole-5-carboxamide]	–	1000 nM	> 25000 nM	–
